# Experimental data taken from patent US9695155B2, “Herbicidal substituted pyrimidinyloxy benzene compounds” (E. I. DU PONT DE NEMOURS AND COMPANY, priority 2013, dated 2017).
# Columns and labels:
# [1] = system: giant foxtail; test: Test A preemergence; assay type: in vivo, Setaria faberii; settings: for Plant response rating, Foxtail, Giant: 125 g ai/ha; for Foxtail, Giant plant response rating: 500 g ai/ha
# Outline: (§1)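 Scoring: eye-based comparison with untreated controls, 0 for no effect through 100 for complete control, at about day 10. Treatments: directed soil spray preemergence; foliar spray postemergence on 2–10 cm plants at the one- to two-leaf stage. Medium: loam soil with sand.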
# [2] = system: wheat, winter; test: Test C postemergence; assay type: in vivo, Triticum aestivum; settings: for Plant response rating, Wheat: scale 0 to 100 (0 no effect, 100 complete control)
# Outline: (§2)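 Whole-plant greenhouse test with surfactant-containing solvent formulation, applied preemergence to sown loam–sand pots or postemergence to 2–18 cm plants. Scored by eye 13 to 15 days on, 0–100 scale.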
# [3] = system: morningglory; test: Test C postemergence; assay type: in vivo, Ipomoea coccinea; settings: for Plant response rating, Morningglory: scale 0 to 100 (0 no effect, 100 complete control)
# Outline: as §2
# [4] = system: velvetleaf; test: Test C preemergence; assay type: in vivo, Abutilon theophrasti; settings: for Velvetleaf plant response rating: preemergence; for Plant response rating, Velvetleaf: Preemergence, 31 g ai/ha, scale 0 to 100, 0 no effect, 100 complete control
# Outline: as §2
# [5] = system: wheat; test: Test A postemergence; assay type: in vivo, Triticum aestivum; settings: 0 to 100 scale where 0 is no effect and 100 is complete control
# Outline: as §1
# [6] = system: corn; test: Test C preemergence; assay type: in vivo, Zea mays; settings: for Corn plant response rating: preemergence; for Plant response rating, Corn: Preemergence, 31 g ai/ha, scale 0 to 100, 0 no effect, 100 complete control
# Outline: as §2
# [7] = system: waterhemp; test: Test C preemergence; assay type: in vivo, Amaranthus rudis; settings: for Waterhemp plant response rating: preemergence; for Plant response rating, Waterhemp: Preemergence, 31 g ai/ha, scale 0 to 100, 0 no effect, 100 complete control
# Outline: as §2
# [8] = system: sedge, umbrella; test: Test B flooded paddy test; assay type: in vivo, Cyperus difformis; settings: Flood, 250 g ai/ha; 0 to 100 scale where 0 is no effect and 100 is complete control
# Outline: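 Flooded to 3 cm at the 2-leaf stage, pots received compound through the paddy water and were kept at that depth under greenhouse conditions. After 13–15 days, effect was rated by eye relative to controls, 0 = none and 100 = complete control.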
# [9] = system: ragweed; test: Test C postemergence; assay type: in vivo, Ambrosia elatior; settings: for Plant response rating, Ragweed: scale 0 to 100 (0 no effect, 100 complete control)
# Outline: as §2
# [10] = system: yellow nutsedge; test: Test C postemergence; assay type: in vivo, Cyperus esculentus; settings: for Plant response rating, Nutsedge, Yellow: scale 0 to 100 (0 no effect, 100 complete control)
# Outline: as §2
# [11] = system: galium; test: Test C postemergence; assay type: in vivo, Galium aparine
# Outline: as §2
# [12] = system: morningglory; test: Test C preemergence; assay type: in vivo, Ipomoea coccinea; settings: for Morningglory plant response rating: preemergence; for Plant response rating, Morningglory: Preemergence, 31 g ai/ha, scale 0 to 100, 0 no effect, 100 complete control
# Outline: as §2
# [13] = system: barnyardgrass; test: Test A postemergence; assay type: in vivo, Echinochloa crus-galli; settings: 0 to 100 scale where 0 is no effect and 100 is complete control
# Outline: as §1
# [14] = system: giant foxtail; test: Test C postemergence; assay type: in vivo, Setaria faberii
# Outline: as §2
# [15] = 0 to 100 scale where 0 is no effect and 100 is complete control
# [16] = 16 g ai/ha, postemergence, 0 is no effect, 100 is complete control
# [17] = 125 g ai/ha, postemergence, visual rating
# [18] = 16 g ai/ha, scale 0 to 100 (0 no effect, 100 complete control)
# [19] = 62 g ai/ha, scale 0 (no effect) to 100 (complete control)
# [20] = 125 g ai/ha, scale 0 (no effect) to 100 (complete control)
# [21] = 125 g ai/ha, postemergence, visual rating, scale 0 to 100 (0 no effect, 100 complete control)
# [22] = Postemergence, 62 g ai/ha, scale 0 to 100 (0 no effect, 100 complete control)
# [23] = Postemergence, 31 g ai/ha, 13 to 15 days
# [24] = 16 g ai/ha, postemergence, visual rating, scale 0 to 100 (0 no effect, 100 complete control), 13 to 15 days
# [25] = Postemergence, 31 g ai/ha, scale 0 to 100 (0 no effect, 100 complete control), 13 to 15 days
structure (smiles),measurement,setting,value
Clc1cnc(Oc2cccc(Br)c2-n2cc(Br)nn2)nc1 [Compound 129],"Plant response rating, Foxtail, Giant",[1]; [15],100
same,"Foxtail, Giant plant response rating",[1]; [15],100
same,"Plant response rating (0 to 100), Wheat",[2]; [16],0
same,"Plant response rating, Wheat",[2]; [17],5
same,"Plant response rating, Wheat","[2]; Postemergence, 62 g ai/ha",0
same,"Plant response rating (0 to 100), Morningglory",[3]; [16],75
same,"Plant response rating, Morningglory",[3]; [17],85
same,"Plant response rating, Morningglory","[3]; Postemergence, 62 g ai/ha",80
same,Velvetleaf plant response rating,[4]; [18],35
same,Velvetleaf plant response rating,[4]; [19],100
same,Velvetleaf plant response rating,[4]; [20],100
same,"Plant response rating, Velvetleaf",[4],70
same,Wheat plant response rating,[5]; 125 g ai/ha,0
same,"Plant response rating, Wheat",[5]; 500 g ai/ha,70
same,Corn plant response rating,[6]; [18],0
same,Corn plant response rating,[6]; [19],5
same,Corn plant response rating,[6]; [20],30
same,"Plant response rating, Corn",[6],5
same,Waterhemp plant response rating,[7]; [18],100
same,Waterhemp plant response rating,[7]; [19],100
same,Waterhemp plant response rating,[7]; [20],100
same,"Plant response rating, Waterhemp",[7],100
same,"Plant response rating, Sedge, Umbrella",[8],65
same,"Plant response rating (0 to 100), Ragweed",[9]; [16],15
same,"Plant response rating, Ragweed",[9]; [17],85
same,"Plant response rating, Ragweed","[9]; Postemergence, 62 g ai/ha",40
same,"Plant response rating (0 to 100), Nutsedge, Yellow",[10]; [16],0
same,"Plant response rating, Nutsedge, Yellow",[10]; [17],10
same,"Plant response rating, Nutsedge, Yellow","[10]; Postemergence, 62 g ai/ha",5
same,"Plant response rating (0 to 100), Galium",[11]; [16],50
same,"Plant response rating, Galium",[11]; [21],85
same,"Plant response rating, Galium",[11]; [22],55
same,Morningglory plant response rating,[12]; [18],5
same,Morningglory plant response rating,[12]; [19],45
same,Morningglory plant response rating,[12]; [20],75
same,"Plant response rating, Morningglory",[12],35
same,Barnyardgrass plant response rating,[13]; 125 g ai/ha,90
same,"Plant response rating, Barnyardgrass",[13]; 500 g ai/ha,90
same,"Plant response rating (0 to 100), Foxtail, Giant",[14]; [16],5
same,"Plant response rating, Foxtail, Giant",[14]; [21],10
same,"Plant response rating, Foxtail, Giant",[14]; [22],5
N#Cc1cccc(Oc2ncc(Br)cn2)c1-n1cc(I)cn1 [Compound 88],"Plant response rating, Foxtail, Giant",[1]; [15],100
same,"Foxtail, Giant plant response rating","[1]; 0 to 100 scale, 0 no effect, 100 complete control, approx. 10 days",100
same,"Plant response rating (0 to 100), Wheat","[2]; 125 g ai/ha, postemergence",5
same,"Plant response rating, Wheat",[2]; [23],5
same,"Plant response rating, Wheat","[2]; Postemergence, 62 g ai/ha",5
same,"Plant response rating (0 to 100), Morningglory","[3]; 125 g ai/ha, postemergence",95
same,"Plant response rating, Morningglory",[3]; [23],90
same,"Plant response rating, Morningglory","[3]; Postemergence, 62 g ai/ha",85
same,Velvetleaf plant response rating,[4]; [18],15
same,Velvetleaf plant response rating,[4]; [19],100
same,Velvetleaf plant response rating,[4]; [20],100
same,"Plant response rating, Velvetleaf",[4],98
same,"Plant response rating, Wheat",[5]; 125 g ai/ha,0
same,"Plant response rating, Wheat",[5]; 500 g ai/ha,50
same,Corn plant response rating,[6]; [18],5
same,Corn plant response rating,[6]; [19],5
same,Corn plant response rating,[6]; [20],15
same,"Plant response rating, Corn",[6],5
same,Waterhemp plant response rating,[7]; [18],98
same,Waterhemp plant response rating,[7]; [19],100
same,Waterhemp plant response rating,[7]; [20],100
same,"Plant response rating, Waterhemp",[7],100
same,"Plant response rating, Sedge, Umbrella",[8],0
same,"Plant response rating (0 to 100), Ragweed","[9]; 125 g ai/ha, postemergence",60
same,"Plant response rating, Ragweed",[9]; [23],55
same,"Plant response rating, Ragweed","[9]; Postemergence, 62 g ai/ha",55
same,"Plant response rating (0 to 100), Nutsedge, Yellow","[10]; 125 g ai/ha, postemergence",10
same,"Plant response rating, Nutsedge, Yellow",[10]; [23],5
same,"Plant response rating, Nutsedge, Yellow","[10]; Postemergence, 62 g ai/ha",10
same,Galium plant response rating,[11]; [24],70
same,"Plant response rating (0 to 100), Galium","[11]; 125 g ai/ha, postemergence",95
same,"Plant response rating, Galium",[11]; [25],80
same,"Plant response rating, Galium",[11]; [22],70
same,Morningglory plant response rating,[12]; [18],0
same,Morningglory plant response rating,[12]; [19],40
same,Morningglory plant response rating,[12]; [20],90
same,"Plant response rating, Morningglory",[12],5
same,"Plant response rating, Barnyardgrass",[13]; 125 g ai/ha,60
same,"Plant response rating, Barnyardgrass",[13]; 500 g ai/ha,80
same,"Foxtail, Giant plant response rating",[14]; [24],20
same,"Plant response rating (0 to 100), Foxtail, Giant","[14]; 125 g ai/ha, postemergence",40
same,"Plant response rating, Foxtail, Giant",[14]; [25],35
same,"Plant response rating, Foxtail, Giant",[14]; [22],30
